Data on 1 cell line can be found in the supplement of paper PMC10307832.

Holding throughout (assay): relative viability (nuclei count vs DMSO), 5 days (fraction); higher = more cells survive
Compound in test [1]: CC1=CC=C(C=C1)C(=O)CN2C3=C(CCCC3)SC2=N [Pifithrin_alpha] + CC(C)C[C@H](NC(=O)[C@H](Cc1ccccc1)NC(=O)c1cnccn1)B(O)O [Bortezomib] (partner 0.002 µM)
In short, it runs like this:
(§1)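 The day after seeding in 1536-well plates, lung cancer cell lines were treated by pin tool with a single drug, or with a fixed anchor-drug dose together with five library-drug doses (not always all listed) in √10 steps. After 5 days, a combined fix-and-stain solution (final 0.05% Triton X-100, 1% formaldehyde, 1 ug/ml Hoechst) was added. Nuclei counted on 4× images gave relative viability as treated counts over vehicle counts, reported as the median of duplicate plates.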

Compound in test [2]: CC1=CC=C(C=C1)C(=O)CN2C3=C(CCCC3)SC2=N [Pifithrin_alpha] + N=C(N)NC(=N)NCCc1ccccc1 [Phenformin] (partner 250 µM)
In short, it runs like this: as §1

Compound in test [3]: CC1=CC=C(C=C1)C(=O)CN2C3=C(CCCC3)SC2=N [Pifithrin_alpha] + NC(=O)Nc1cc(-c2cccc(F)c2)sc1C(=O)N[C@H]1CCCNC1 [AZD7762] (partner 0.2 µM)
The method, boiled down: as §1

Compound in test [4]: CNC(=O)c1ccccc1Sc1ccc2c(/C=C/c3ccccn3)n[nH]c2c1 [Axitinib] + COc1cccc2cc(-c3nc([C@H]4CC[C@H](C(=O)O)CC4)n4ncnc(N)c34)[nH]c12 [OSI-027] (partner 0.5 µM)
In short, it runs like this:
as §1

Take NCI-H650: the relative viability in test [1] (first compound 3.162 µM) is 1; in test [1] (first compound 10 µM), 0.804; in test [1] (first compound 31.62 µM), 0.51; in test [1] (first compound 100 µM) it was 0.725; in test [2] (first compound 3.162 µM), 0.49; in test [2] (first compound 10 µM), 0.454. Besides, the relative viability in test [2] (first compound 31.62 µM) turned out to be 0.421; in test [2] (first compound 100 µM), 0.421; in test [3] (first compound 3.162 µM) it was 1.08; in test [3] (first compound 10 µM), 0.932; in test [3] (first compound 31.62 µM) it was 0.718; in test [3] (first compound 100 µM), 0.905. In addition, the relative viability worked out at 0.533 in test [4] (first compound 0.005 µM); 0.486 in test [4] (first compound 0.01581 µM); 0.517 in test [4] (first compound 0.05 µM); 0.571 in test [4] (first compound 0.1581 µM); 0.584 in test [4] (first compound 0.5 µM).
